Measured values as given in US9822114B2, “Tricyclic oxazolidinone antibiotic compounds” (Idorsia Pharmaceuticals Ltd, priority 2008, dated 2017).

System: M. catarrhalis A894
Assay: Minimal inhibitory concentration (MIC), microdilution method in cation-adjusted Mueller-Hinton Broth (CLSI M7-A7)
Type: cell-based
Conditions: strain A894
Procedure: Minimal inhibitory concentrations (MICs; mg/1) were determined in cation-adjusted Mueller-Hinton Broth by a microdilution method following the description given in “Methods for Dilution Antimicrobial Susceptibility Tests for Bacteria that Grow Aerobically”, Approved standard, 7th ed., Clinical and Laboratory Standards Institute (CLSI) Document M7-A7, Wayne, Pa., USA, 2006.

Row | Substance | MIC for M. catarrhalis A894
1 | (1R,2R)-2-hydroxymethyl-1-{3-[(R)-2-oxo-3-(3-oxo-3,4-dihydro-2H-benzo[1,4]thiazin-6-yl)-oxazolidin-5-yl]-propylamino}-1,2-dihydro-pyrrolo[3,2,1-ij]quinolin-4-one and (1S,2S)-2-hydroxymethyl-1-{3-[(R)-2-oxo-3-(3-oxo-3,4-dihydro-2H-benzo[1,4]thiazin-6-yl)-oxazolidin-5-yl]-propylamino}-1,2-dihydro-pyrrolo[3,2,1-ij]quinolin-4-one [Example 163] | 0.031 µg/mL
2 | (1R,2R)-2-hydroxymethyl-1-{3-[(S)-2-oxo-3-(3-oxo-3,4-dihydro-2H-benzo[1,4]thiazin-6-yl)-oxazolidin-5-yl]-propylamino}-1,2-dihydro-pyrrolo[3,2,1-ij]quinolin-4-one and (1S,2S)-2-hydroxymethyl-1-{3-[(S)-2-oxo-3-(3-oxo-3,4-dihydro-2H-benzo[1,4]thiazin-6-yl)-oxazolidin-5-yl]-propylamino}-1,2-dihydro-pyrrolo[3,2,1-ij]quinolin-4-one [Example 164] | 0.031 µg/mL
3 | (1R,2R)-2-methoxymethyl-1-{3-[(R)-2-oxo-3-(3-oxo-3,4-dihydro-2H-benzo[1,4]thiazin-6-yl)-oxazolidin-5-yl]-propylamino}-1,2-dihydro-pyrrolo[3,2,1-ij]quinolin-4-one and (1S,2S)-2-methoxymethyl-1-{3-[(R)-2-oxo-3-(3-oxo-3,4-dihydro-2H-benzo[1,4]thiazin-6-yl)-oxazolidin-5-yl]-propylamino}-1,2-dihydro-pyrrolo[3,2,1-ij]quinolin-4-one [Example 165] | 0.125 µg/mL
4 | (1R,2R)-4-oxo-1-{3-[(R)-2-oxo-3-(3-oxo-3,4-dihydro-2H-benzo[1,4]thiazin-6-yl)-oxazolidin-5-yl]-propylamino}-1,2-dihydro-4H-pyrrolo[3,2,1-ij]quinoline-2-carboxylic acid methyl ester and (1S,2S)-4-oxo-1-{3-[(R)-2-oxo-3-(3-oxo-3,4-dihydro-2H-benzo[1,4]thiazin-6-yl)-oxazolidin-5-yl]-propylamino}-1,2-dihydro-4H-pyrrolo[3,2,1-ij]quinoline-2-carboxylic acid methyl ester [Example 161] | 0.125 µg/mL
5 | (1R,2R)-4-oxo-1-{3-[(S)-2-oxo-3-(3-oxo-3,4-dihydro-2H-benzo[1,4]thiazin-6-yl)-oxazolidin-5-yl]-propylamino}-1,2-dihydro-4H-pyrrolo[3,2,1-ij]quinoline-2-carboxylic acid methyl ester and (1S,2S)-4-oxo-1-{3-[(S)-2-oxo-3-(3-oxo-3,4-dihydro-2H-benzo[1,4]thiazin-6-yl)-oxazolidin-5-yl]-propylamino}-1,2-dihydro-4H-pyrrolo[3,2,1-ij]quinoline-2-carboxylic acid methyl ester [Example 162] | 0.25 µg/mL
6 | (1R,2S)-2-methyl-1-{3-[(R)-2-oxo-3-(3-oxo-3,4-dihydro-2H-benzo[1,4]thiazin-6-yl)-oxazolidin-5-yl]-propylamino}-1,2-dihydro-pyrrolo[3,2,1-ij]quinolin-4-one and (1S,2R)-2-methyl-1-{3-[(R)-2-oxo-3-(3-oxo-3,4-dihydro-2H-benzo[1,4]thiazin-6-yl)-oxazolidin-5-yl]-propylamino}-1,2-dihydro-pyrrolo[3,2,1-ij]quinolin-4-one [Example 166] | ≦0.031 mg/l
7 | (1R,2S)-2-methyl-1-{3-[(R)-2-oxo-3-(3-oxo-3,4-dihydro-2H-pyrido[3,2-b][1,4]thiazin-6-yl)-oxazolidin-5-yl]-propylamino}-1,2-dihydro-pyrrolo[3,2,1-ij]quinolin-4-one and (1S,2R)-2-methyl-1-{3-[(R)-2-oxo-3-(3-oxo-3,4-dihydro-2H-pyrido[3,2-b][1,4]thiazin-6-yl)-oxazolidin-5-yl]-propylamino}-1,2-dihydro-pyrrolo[3,2,1-ij]quinolin-4-one [Example 168] | ≦0.031 mg/l
8 | (1R,2S)-2-methyl-1-{3-[(S)-2-oxo-3-(3-oxo-3,4-dihydro-2H-benzo[1,4]thiazin-6-yl)-oxazolidin-5-yl]-propylamino}-1,2-dihydro-pyrrolo[3,2,1-ij]quinolin-4-one and (1S,2R)-2-methyl-1-{3-[(S)-2-oxo-3-(3-oxo-3,4-dihydro-2H-benzo[1,4]thiazin-6-yl)-oxazolidin-5-yl]-propylamino}-1,2-dihydro-pyrrolo[3,2,1-ij]quinolin-4-one [Example 167] | ≦0.031 mg/l
9 | (1R,2S)-2-methyl-1-{3-[(S)-2-oxo-3-(3-oxo-3,4-dihydro-2H-pyrido[3,2-b][1,4]thiazin-6-yl)-oxazolidin-5-yl]-propylamino}-1,2-dihydro-pyrrolo[3,2,1-ij]quinolin-4-one and (1S,2R)-2-methyl-1-{3-[(S)-2-oxo-3-(3-oxo-3,4-dihydro-2H-pyrido[3,2-b][1,4]thiazin-6-yl)-oxazolidin-5-yl]-propylamino}-1,2-dihydro-pyrrolo[3,2,1-ij]quinolin-4-one [Example 169] | ≦0.031 mg/l
10 | (RS)-1-({[(R)-3-(4-ethoxy-phenyl)-2-oxo-oxazolidin-5-ylmethyl]-amino}-methyl)-9-fluoro-1,2-dihydro-pyrrolo[3,2,1-ij]quinolin-4-one [Example 36] | 8 µg/mL
11 | N—((RS)-9-fluoro-4-oxo-1,2-dihydro-4H-pyrrolo[3,2,1-ij]quinolin-1-yl)-N-{3-[(R)-2-oxo-3-(3-oxo-3,4-dihydro-2H-benzo[1,4]thiazin-6-yl)-oxazolidin-5-yl]-propyl}-acetamide and (RS)-1-{3-[(R)-3-(4-acetyl-3-oxo-3,4-dihydro-2H-benzo[1,4]thiazin-6-yl)-2-oxo-oxazolidin-5-yl]-propylamino}-9-fluoro-1,2-dihydro-pyrrolo[3,2,1-ij]quinolin-4-one [Example 172] | 0.25 µg/mL
